Results: paper PMC9995496, “A screen for MeCP2-TBL1 interaction inhibitors using a luminescence-based assay” (Scientific Reports, 2023)
Where a name gives a salt, the structure may show the parent alone.

tested on: PRKACA-PRKAR2A interaction (SmBiT-PRKACA / LgBiT-PRKAR2A), protein kinase A; parameters: NanoLuc complementation counter-screen in cell extract, PRKACA with PRKAR2A, loss of luminescence, detects NanoLuc interference; conditions: counter-screen for NanoLuc interference, 0.5 h, 20 µM, inhibitor, Inh (PKA)

Inh (PKA)	SMILES
14.36%	Cc1ccc(Nc2nccc(N(C)c3ccc4c(C)n(C)nc4c3)n2)cc1S(N)(=O)=O [UM0142006:01, Pazopanib Hydrochloride]
4.293%	CCCCCCOC(=O)NC(=N)c1ccc(NCc2nc3cc(C(=O)N(CCC(=O)OCC)c4ccccn4)ccc3n2C)cc1 [UM0142023:01, BIBR-1048]
16.9%	CN1CCN(c2ccc3nc(-c4c(N)c5c(F)cccc5[nH]c4=O)[nH]c3c2)CC1 [UM0142034:01, Dovitinib Dilactic acid]
1.035%	C[C@H]1c2cccc(O)c2C(=O)C2=C(O)[C@]3(O)C(=O)C(C(N)=O)=C(O)[C@@H](N(C)C)[C@@H]3[C@@H](O)[C@@H]21 [UM0142036:01, Doxycycline HCl]
-0.03613%	Nc1ccn([C@@H]2O[C@H](CO)[C@@H](O)C2(F)F)c(=O)n1 [UM0142041:01, Gemcitabine]
54.73%	COc1cc(Nc2ncc(F)c(Nc3ccc4c(n3)NC(=O)C(C)(C)O4)n2)cc(OC)c1OC [UM0142079:01, R406]

SMILES	Inh (PKA)
CCN(C)C(=O)Oc1cccc([C@H](C)N(C)C)c1 [UM0142069:01, Rivastigmine Tartrate]	1.4%

same assay, conditions: counter-screen for NanoLuc interference; 0.5 h, 20 µM; inhibitor

Inh (PKA)	SMILES
-0.4847%	Nc1ccn([C@@H]2CS[C@H](CO)O2)c(=O)n1 [UM0142052:01, Lamivudine]
1.122%	CCN(C(=O)c1c(O)c2c(Cl)cccc2n(C)c1=O)c1ccccc1 [UM0142053:01, Laquinimod (ABR-215062)]
-0.08675%	c1ccc(-c2nn3c(c2-c2ccnc4cc(OCCN5CCOCC5)ccc24)CCC3)nc1 [UM0142054:01, LY2109761]
5.898%	NC1=N[C@@]2(c3cc(NC(=O)c4ccc(F)cn4)ccc3F)COC[C@H]2CS1 [UM0142055:01, LY2886721]
3.158%	Nc1nc(CC(=O)Nc2ccc(CCNC[C@H](O)c3ccccc3)cc2)cs1 [UM0142057:01, Mirabegron (YM178)]
13.67%	CN(C[C@@H]1COCCO1)S(=O)(=O)Nc1ccc2ccc3ncc(-c4cnn(C)c4)cc3c(=O)c2c1 [UM0142058:01, MK-2461]
4.838%	Cn1cc(-c2cnn3c(N)c(Br)c([C@@H]4CCCNC4)nc23)cn1 [UM0142059:01, MK-8776 (SCH-900776)]
3.121%	Cc1ccnc2c1NC(=O)c1cccnc1N2C1CC1 [UM0142060:01, Nevirapine]
89.11%	COCCOC(=O)C1=C(C)NC(C)=C(C(=O)OC(C)C)C1c1cccc([N+](=O)[O-])c1 (centres unmarked) [UM0142061:01, Nimodipine]
19.52%	COc1ccc(-c2ccc3ncc4c(c3c2)n(-c2ccc(N3CCNCC3)c(C(F)(F)F)c2)c(=O)n4C)cn1 [UM0142062:01, NVP-BGT226]
13.19%	Cn1cc(-c2ccc3ncc(Cc4ccc5ncccc5c4)n3n2)cn1 [UM0142063:01, NVP-BVU972]
7.804%	COc1ccc(-c2cc3c(C)nc(N)nc3n([C@H]3CC[C@H](OCCO)CC3)c2=O)cn1 [UM0142064:01, PF-04691502]
8.149%	CNC(=O)c1nn(C)c2c1C(C)(C)Cc1cnc(Nc3ccc(N4CCN(C)CC4)cc3)nc1-2 [UM0142065:01, PHA-848125]
41.78%	O=C(O)C[C@H](O)C[C@H](O)/C=C/c1c(C2CC2)nc2ccccc2c1-c1ccc(F)cc1 [UM0142066:01, Pitavastatin Calcium]
0.4885%	CCn1nnc2c(N3CCOCC3)nc(-c3ccc(NC(=O)Nc4ccc(C(=O)N5CCN(C)CC5)cc4)cc3)nc21 [UM0142067:01, PKI-402]
35.34%	CO[C@H]1/C=C/O[C@@]2(C)Oc3c(C)c(O)c4c(O)c(c5c(nc6cc(C)ccn65)c4c3C2=O)NC(=O)/C(C)=C\C=C\[C@H](C)[C@H](O)[C@@H](C)[C@@H](O)[C@@H](C)[C@H](OC(C)=O)[C@@H]1C [UM0142068:01, Rifaximin (Xifaxan)]
4.68%	CC(C)c1nc(N(C)S(C)(=O)=O)nc(-c2ccc(F)cc2)c1/C=C/[C@@H](O)C[C@@H](O)CC(=O)O [UM0142070:01, Rosuvastatin Calcium]
65.03%	CN1CCN(c2nc(C3=C(c4c[nH]c5ccccc45)C(=O)NC3=O)c3ccccc3n2)CC1 [UM0142072:01, Sotrastaurin (AEB071)]
28.39%	CC(C)(O)CC(=O)NCCn1ccc2ncnc(Nc3ccc(Oc4cccc(C(F)(F)F)c4)c(Cl)c3)c21 [UM0142073:01, TAK-285]
-0.434%	Cc1cn([C@@H]2C[C@@H](O)[C@H](CO)O2)c(=O)[nH]c1=O [UM0142074:01, Telbivudine]
6.975%	COc1cc([C@@H]2c3cc4c(cc3[C@@H](O[C@@H]3O[C@@H]5CO[C@@H](c6cccs6)O[C@H]5[C@H](O)[C@H]3O)[C@H]3COC(=O)[C@H]23)OCO4)cc(OC)c1O [UM0142075:01, Teniposide]
11.27%	CSc1ccc2c(c1)N(CCC1CCCCN1C)c1ccccc1S2 (centres unmarked) [UM0142076:01, Thioridazine HCl]

The remaining lines, values behind:

SMILES	Inh (PKA)
Cc1nc(NC(=O)N2CCC[C@H]2C(N)=O)sc1-c1ccnc(C(C)(C)C(F)(F)F)c1 [UM0142005:01, BYL-719]	2.69%
Cc1cccc(-c2nn3c(c2-c2ccnc4ccc(C(N)=O)cc24)CCC3)n1 [UM0142007:01, LY2157299]	1.976%
COC(=O)N1CCN(Cc2cccc(NC(=O)Nc3ccc(C)nc3)c2F)CC1 [UM0142008:01, Omecamtiv mecarbil]	3.022%
COc1cc(CCc2cc(NC(=O)c3ccc(N4C[C@@H](C)N[C@@H](C)C4)cc3)n[nH]2)cc(OC)c1 [UM0142009:01, AZD4547]	12.3%
Cc1ccc(NC(=O)C2(c3ccc4c(c3)OC(F)(F)O4)CC2)nc1-c1cccc(C(=O)O)c1 [UM0142010:01, VX-809]	21.09%
Cn1cnc(N)c2ncnc1-2 [UM0142011:01, 3-Methyladenine]	0.4537%
Oc1ncnc2[nH]ncc12 [UM0142014:01, Allopurinol]	-0.9072%
CC1CNc2c(cccc2S(=O)(=O)N[C@@H](CCCNC(=N)N)C(=O)N2CC[C@@H](C)C[C@@H]2C(=O)O)C1 (some centres unmarked) [UM0142015:01, Argatroban]	1.414%
CNC(=O)c1ccc(N2C(=S)N(c3cnc(C#N)c(C(F)(F)F)c3)C(=O)C23CCC3)cc1F [UM0142016:01, ARN-509]	2.375%
C=CC(=O)Nc1ccc2ncnc(Nc3ccc(OCc4cccc(F)c4)c(Cl)c3)c2c1 [UM0142018:01, AST-1306]	12.53%
CNC(=O)c1cccc(-c2ccc3c(N4CCOC[C@@H]4C)nc(N4CCOC[C@@H]4C)nc3n2)c1 [UM0142021:01, AZD2014]	7.565%
CNC(=O)CN1CCC(Oc2cc3c(Nc4cccc(Cl)c4F)ncnc3cc2OC)CC1 [UM0142022:01, AZD8931 (Sapitinib)]	6.017%
CCCCOc1c(C(=O)c2c(F)cc(C)cc2F)c[nH]c2nncc1-2 [UM0142024:01, BMS265246]	6.004%
O=c1[nH]c2ccc(Cl)cc2c(N[C@@H]2CN3CCC2CC3)c1-c1nc2ccccc2[nH]1 [UM0142025:01, CHIR-124]	30.1%
Nc1nc(NCCNc2ncc(-n3ccnc3)c(-c3ccc(Cl)cc3Cl)n2)ccc1[N+](=O)[O-] [UM0142026:01, CHIR-98014]	80.31%
CN(C)C(=O)[C@H](O)[C@H](Cc1ccccc1)NC(=O)c1cc2cc(Cl)ccc2[nH]1 [UM0142029:01, CP-91149]	53.3%
O=c1[nH]cnc2c1ncn2[C@H]1CC[C@@H](CO)O1 [UM0142031:01, Didanosine]	-1.093%

SMILES	Inh (PKA)
CCc1cnn2c(NCc3ccc[n+]([O-])c3)cc(N3CCCC[C@H]3CCO)nc12 [UM0142032:01, Dinaciclib (SCH727965)]	1.224%
CN(CCOc1ccc(NS(C)(=O)=O)cc1)CCc1ccc(NS(C)(=O)=O)cc1 [UM0142033:01, Dofetilide]	-0.1542%
CCN1CC(CCN2CCOCC2)C(c2ccccc2)(c2ccccc2)C1=O (centres unmarked) [UM0142035:01, Doxapram HCl]	1.453%
Nc1nc(=O)n([C@@H]2CS[C@H](CO)O2)cc1F [UM0142037:01, Emtricitabine]	-0.284%
C[C@]12CC[C@@H]3c4ccc(O)cc4CC[C@H]3[C@@H]1CCC2=O [UM0142038:01, Estrone]	7.468%
O=C1[C@H](CC[C@H](O)c2ccc(F)cc2)[C@@H](c2ccc(O)cc2)N1c1ccc(F)cc1 [UM0142039:01, Ezetimibe]	29.66%
CC(C(=O)O)c1ccc(-c2ccccc2)c(F)c1 (centres unmarked) [UM0142040:01, Flurbiprofen]	28.61%
CC(C)c1noc(N2CCC(COc3ccc(-c4ccc(S(C)(=O)=O)cc4)nc3)CC2)n1 [UM0142042:01, GSK1292263]	2.417%
CNC(=O)c1c(F)cccc1Nc1nc(Nc2cc3c(ccn3C(=O)CN(C)C)cc2OC)nc2[nH]ccc12 [UM0142043:01, GSK1838705A]	3.955%
O=C(O)Cc1cccc(OCCCN(Cc2cccc(C(F)(F)F)c2Cl)CC(c2ccccc2)c2ccccc2)c1 [UM0142045:01, GW3965 HCl]	20.75%
CC(C)Cc1ccc(C(C)C(=O)O)cc1 (centres unmarked) [UM0142046:01, Ibuprofen]	3.005%
CCOC(=O)[C@H](CCc1ccccc1)N[C@@H](C)C(=O)N1C(=O)N(C)C[C@H]1C(=O)O [UM0142047:01, Imidapril HCl]	2.302%
CNC(=O)c1ccc(-c2cnc3ncc(Cc4ccc5ncccc5c4)n3n2)cc1F [UM0142048:01, INCB28060]	6.016%
CC(O)c1cc(C(=O)N[C@@H](C)Cn2ccc(-c3ccc(C#N)c(Cl)c3)n2)n[nH]1 (some centres unmarked) [UM0142049:01, ODM-201]	2.703%
COC(=O)C1=C(C)NC(C)=C(C(=O)OC(C)C)C1c1cccc2nonc12 (centres unmarked) [UM0142050:01, Isradipine (Dynacirc)]	94.06%
COC(=O)C1=C(C#N)NC(C)=C(C(=O)OC(C)C)C1c1cccc([N+](=O)[O-])c1 (centres unmarked) [UM0142051:01, Nilvadipine]	88.81%
